Tests used:
Assay in all cases: relative viability (nuclei count vs DMSO), 5 days (fraction); higher = more cells survive
[1] = compound: CC(=O)Nc1cccc(-n2c(=O)n(C3CC3)c(=O)c3c(Nc4ccc(I)cc4F)n(C)c(=O)c(C)c32)c1 [Trametinib] + Cc1nc(Nc2ncc(C(=O)Nc3c(C)cccc3Cl)s2)cc(N2CCN(CCO)CC2)n1 [Dasatinib] (partner 0.075 µM)
How it was run: (§1)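 Lung cancer cell lines, seeded in 1536-well plates, were treated the following day by pin tool with a single drug or with five library-drug doses (not always all listed) in √10 steps on top of a fixed anchor-drug dose. Cells were fixed and nuclei stained in one step after 5 days, and nuclei were counted. Relative viability is the nuclei count for treated wells divided by that for vehicle wells, reported as medians of duplicate plates.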

[2] = compound: CN1C=C(C2=CC=CC=C21)/C=C\3/C4=C(C=CC=N4)NC3=O + O=C(CCCCCCC(=O)Nc1ccccc1)NO [Vorinostat] (partner 1 µM)
How it was run: as §1

[3] = compound: CC(=O)Nc1cccc(-n2c(=O)n(C3CC3)c(=O)c3c(Nc4ccc(I)cc4F)n(C)c(=O)c(C)c32)c1 [Trametinib] + CC(=O)c1c(C)c2cnc(Nc3ccc(N4CCNCC4)cn3)nc2n(C2CCCC2)c1=O [Palbociclib] (partner 0.5 µM)
How it was run: as §1

[4] = compound: CC(=O)Nc1cccc(-n2c(=O)n(C3CC3)c(=O)c3c(Nc4ccc(I)cc4F)n(C)c(=O)c(C)c32)c1 [Trametinib] + Cc1nc(NC(=O)N2CCC[C@H]2C(N)=O)sc1-c1ccnc(C(C)(C)C(F)(F)F)c1 [Alpelisib] (partner 2 µM)
How it was run: as §1

Row | Cell Line | relative viability ([1]; first compound 0.0025 µM) | relative viability ([1]; first compound 0.007906 µM) | relative viability ([1]; first compound 0.025 µM) | relative viability ([1]; first compound 0.07906 µM) | relative viability ([1]; first compound 0.25 µM) | relative viability ([2]; first compound 0.02 µM) | relative viability ([2]; first compound 0.06325 µM) | relative viability ([2]; first compound 0.2 µM) | relative viability ([2]; first compound 0.6325 µM) | relative viability ([2]; first compound 2 µM) | relative viability ([3]; first compound 0.0025 µM) | relative viability ([3]; first compound 0.007906 µM) | relative viability ([3]; first compound 0.025 µM) | relative viability ([3]; first compound 0.07906 µM) | relative viability ([3]; first compound 0.25 µM) | relative viability ([4]; first compound 0.0025 µM) | relative viability ([4]; first compound 0.007906 µM) | relative viability ([4]; first compound 0.025 µM) | relative viability ([4]; first compound 0.07906 µM) | relative viability ([4]; first compound 0.25 µM)
1 | COR-L 105 | 0.319 | 0.289 | 0.194 | 0.153 | 0.17 | 0.845 | 0.682 | 0.774 | 0.793 | 0.768 | 0.39 | 0.44 | 0.421 | 0.34 | 0.347 | 0.808 | 1.03 | 0.352 | 0.419 | 0.389
2 | RERF-LC-KJ | 0.7 | 0.741 | 0.794 | 0.731 | 0.554 | 0.787 | 0.668 | 0.72 | 0.604 | 0.598 | 1.03 | 0.857 | 0.914 | 0.848 | 0.66 | 0.775 | 0.759 | 0.645 | 0.657 | 0.472
3 | NCI-H1793 | 0.26 | 0.25 | 0.244 | 0.212 | 0.242 | 0.774 | 0.733 | 0.522 | 0.681 | 0.704 | 0.277 | 0.242 | 0.225 | 0.213 | 0.192 | 0.578 | 0.457 | 0.28 | 0.425 | 0.29
4 | CAL-12T | 0.232 | 0.219 | 0.268 | 0.165 | 0.104 | 0.652 | 0.675 | 0.703 | 0.873 | 0.679 | 0.387 | 0.193 | 0.179 | 0.171 | 0.187 | 1.14 | 0.79 | 0.452 | 0.45 | 0.34
5 | NCI-H1993 | 0.51 | 0.521 | 0.505 | 0.521 | 0.551 | 0.837 | 0.736 | 0.647 | 0.622 | 0.6 | 0.553 | 0.526 | 0.548 | 0.61 | 0.448 | 0.649 | 0.722 | 0.656 | 0.699 | 0.649
6 | LXF-289 | 0.192 | 0.305 | 0.299 | 0.28 | 0.0945 | 0.693 | 0.828 | 0.689 | 0.817 | 0.801 | 0.526 | 0.508 | 0.423 | 0.429 | 0.379 | 0.961 | 0.894 | 0.758 | 0.672 | 0.495
7 | LU99A | 0.529 | 0.535 | 0.376 | 0.363 | 0.317 | 0.475 | 0.401 | 0.508 | 0.492 | 0.477 | 0.401 | 0.436 | 0.335 | 0.355 | 0.243 | 0.571 | 0.456 | 0.444 | 0.262 | 0.172
8 | SW 1573 | 0.513 | 0.389 | 0.371 | 0.323 | 0.266 | 0.73 | 0.656 | 0.787 | 0.8 | 0.882 | 0.36 | 0.301 | 0.298 | 0.158 | 0.17 | 0.629 | 0.619 | 0.564 | 0.457 | 0.43

— the supplement of paper PMC10307832
